According to patent US20200407717A1, “METHODS OF MODULATING ANTISENSE ACTIVITY” (Ionis Pharmaceuticals, Inc., priority 2018, published 2020):
e = 2'-O-(2-methoxyethyl) (MOE); d = 2'-deoxy (DNA)

Tests used:
[1] = tested on: EGF-EGFR signaling; assay: EGFR signaling western blot (p-EGFR, p-ERK), A431 cells; type: cell-based; conditions: 2 μM for 16 hours
Procedure: In order to test the effects of a PS-ASO on EGFR signaling, A431 cells were incubated with compound no. 116847 or no PS-ASO compound for 16 hours. All cells were then treated with EGF prior to being subjected to the pulse-chase protocol described above. Cell lysates were run on a SDS-PAGE gel and analyzed by sequential western blot for phosphorylated EGFR (P-EGFR), total EGFR (T-EGFR), phosphorylated ERK (P-ERK), and total ERK (T-ERK) using the antibodies described above for EGFR, 4370 for P-ERK (Cell Signaling Technology), and 4695 for T-ERK (Cell Signaling Technology).
110080, 25690, 25699, 395251, or 395254 at 2 μM for 16 hours prior to carrying out the pulse-chase experiment described above.

[2] = tested on: Malat1 RNA; assay: Antisense activity by RT-qPCR, Malat1, A431 cells; type: cell-based
Procedure: A431 cells were grown at 10,000 cells per well and pre-treated with a variety of growth factors to determine if the addition of exogenous growth factors affects antisense activity or uptake of modified antisense oligonucleotides in a cell. The growth factors used were EGF, insulin growth factor (IGF), transforming growth factor (TGF), […] (VEGF), hepatocyte growth factor (HGF), platelet growth factor (PGF) and fibroblasts growth factor (FGF). To test antisense activity, cells were treated for 4 hours with a growth factor or vehicle alone, and then treated with compound no. 25690 (complementary to Drosha), compound no. 395254 (complementary to Malat1), or vehicle alone. RNA was isolated from the cells and Drosha or Malat1 RNA levels were measured by RT-qPCR. Human primer probe set 13816 (forward sequence […], designated herein as SEQ ID NO: 3; reverse sequence […], designated herein as SEQ ID NO: 4; probe sequence […], designated herein as SEQ ID NO: 5) was used to measure Drosha mRNA levels and primer probe set RTS2736 (forward sequence […], designated herein as SEQ ID NO: 6; reverse sequence […], designated herein as SEQ ID NO: 7; probe sequence TGCCACATCGCCACCCCGT, designated herein as SEQ ID NO: 8) was used to measure Malat1 RNA levels. Drosha and Malat1 RNA levels were normalized to total RNA content, as measured by RIBOGREEN®. Results are presented in the tables below as normalized RNA levels, relative to untreated control cells.
A431 cells were treated with EGF or TGF at 200 ng/mL in the presence or absence of 1 μM of the EGFR tyrosine kinase inhibitor PD174265. The cells were then treated with compound no. 25690 or compound no. 395254 as in Example 8. Total RNA was isolated and analyzed by RT-qPCR, as in Example 8.
Following siRNA treatment, cells were treated with compound no. 25690 or compound no. 395254 in the presence or absence of EGF. 16 hours after treatment with a PS-ASO with or without EGF, cells were harvested, and RNA levels were analyzed via RT-qPCR as in Example 8.

AGGAAGGAAGCTGGCGATCT (sugars from the 5' end e5 d10 e5, all phosphorothioate, methylation of C not given here) [compound 25690]
EGFR signaling [1]: not be impacted
Malat1 RNA (% Control) ([2]; 2.0 nM, Control, Table 19): 100.0 % Control
Malat1 RNA (% Control) ([2]; 2.0 nM, EGF+PD174265): 100.0 % Control
Malat1 RNA (% Control) ([2]; 2.0 nM, EGF, Table 19): 100.0 % Control
Malat1 RNA (% Control) ([2]; 3.9 nM, Control, Table 19): 99.2 % Control
Malat1 RNA (% Control) ([2]; 3.9 nM, EGF+PD174265): 110.0 % Control
Malat1 RNA (% Control) ([2]; 3.9 nM, EGF, Table 19): 105.0 % Control
Malat1 RNA (% Control) ([2]; 7.8 nM, Control, Table 19): 98.2 % Control
Malat1 RNA (% Control) ([2]; 7.8 nM, EGF+PD174265): 97.2 % Control
Malat1 RNA (% Control) ([2]; 7.8 nM, EGF, Table 19): 78.2 % Control
Malat1 RNA (% Control) ([2]; 15.6 nM, Control, Table 19): 72.3 % Control
Malat1 RNA (% Control) ([2]; 15.6 nM, EGF+PD174265): 61.2 % Control
Malat1 RNA (% Control) ([2]; 15.6 nM, EGF, Table 19): 60.1 % Control
Malat1 RNA (% Control) ([2]; 31.3 nM, Control, Table 19): 64.4 % Control
Malat1 RNA (% Control) ([2]; 31.3 nM, EGF+PD174265): 59.8 % Control
Malat1 RNA (% Control) ([2]; 31.3 nM, EGF, Table 19): 40.5 % Control
Malat1 RNA (% Control) ([2]; 62.5 nM, Control, Table 19): 59.6 % Control
Malat1 RNA (% Control) ([2]; 62.5 nM, EGF+PD174265): 50.2 % Control
Malat1 RNA (% Control) ([2]; 62.5 nM, EGF, Table 19): 43.9 % Control
Malat1 RNA (% Control) ([2]; 125 nM, Control, Table 19): 46.2 % Control
Malat1 RNA (% Control) ([2]; 125 nM, EGF+PD174265): 39.6 % Control
Malat1 RNA (% Control) ([2]; 125 nM, EGF, Table 19): 25.9 % Control
Malat1 RNA (% Control) ([2]; 250 nM, Control, Table 19): 36.1 % Control
Malat1 RNA (% Control) ([2]; 250 nM, EGF+PD174265): 45.6 % Control
Malat1 RNA (% Control) ([2]; 250 nM, EGF, Table 19): 18.9 % Control
Malat1 RNA (% Control) ([2]; 500 nM, Control, Table 19): 35.5 % Control
Malat1 RNA (% Control) ([2]; 500 nM, EGF+PD174265): 42.5 % Control
Malat1 RNA (% Control) ([2]; 500 nM, EGF, Table 19): 14.5 % Control
Malat1 RNA (% Control) ([2]; 1000 nM, Control, Table 19): 22.3 % Control
Malat1 RNA (% Control) ([2]; 1000 nM, EGF+PD174265): 22.3 % Control
Malat1 RNA (% Control) ([2]; 1000 nM, EGF, Table 19): 15.2 % Control
Malat1 RNA (% Control) ([2]; 2000 nM, Control, Table 19): 19.2 % Control
Malat1 RNA (% Control) ([2]; 2000 nM, EGF+PD174265): 15.3 % Control
Malat1 RNA (% Control) ([2]; 2000 nM, EGF, Table 19): 12.4 % Control
Malat1 RNA (% Control) ([2]; 4000 nM, Control, Table 19): 17.2 % Control
Malat1 RNA (% Control) ([2]; 4000 nM, EGF+PD174265): 13.2 % Control
Malat1 RNA (% Control) ([2]; 4000 nM, EGF, Table 19): 10.2 % Control
IC50 ([2]; Control, Table 19): 0.043 ± 0.0057 µM
IC50 ([2]; EGF 200 ng/mL + 1 μM PD174265, Table 19): 0.047 ± 0.0053 µM
IC50 ([2]; EGF 200 ng/mL, Table 19): 0.019 ± 0.003 µM
